Columns and labels:
[1] = tested on: inflammation of mice ears caused by antibiotic A-23187; test: Reduction of A-23187-induced ear edema by ear weights, Examples 8-14; type: in vivo, hairless outbred mice (Skh:hr-1 strain); conditions: for Reduction in Edema (%), Study B: Day 2, 1.5 micromole per 10 microliter, A-23187 (4 nmole), sacrifice from 4 hours; for antiinflammatory activity (in words): under the test conditions of Table 2
From the text: (§1) Acute inflammation is induced by the application of 4 nano mole of the antibiotic A-23187 to the ears of young, male, adult hairless outbred mice (Skh:hr-1 strain). Thereafter, one of the compounds AN-10, AMCF3-8, ACBXE-9, acryloyl AN-10, S-4-F and SAN-6 is applied to the affected ears and the degree of reduction in edema (inflammation) noted.
The method used in the subject Examples differs from the method used in the preceding Examples (4 through 7) in two respects.
Secondly, in the expression of the data, the objective parameter of ear weights is used as the sole data source (for the reduction of edema) as erythematous responses are not recorded. Ear weights are determined by sacrificing the animals four hours after initial application of the antibiotic A-23187 or other control material by the use of CO2 gas. Thereafter, the ears are excised by cutting along the characteristic ridge readily discernible along the inner aspect of the ears. Wet and dry ear weights are used to determine the extent of the edema or inflammation present.
In Study A, 28 test animals are randomized into four treatment groups of seven each and subjected to the following ear treatment regimen:
Each animal is dosed with a treatment consisting of a 10 microliter quantity of the assigned test material solution (or pure acetone in the case of the animals of Group D) applied to the outer aspect of both ears, i.e., 10 microliter of test material per ear. The concentrations of the respective materials in acetone solution are such that a 10 microliter dose of a solution of the antibiotic A-23187 contains 4 nano mole of such antibiotic. The corresponding quantity in the case of the AN-10 in acetone solution is 1.5 micromole. The animals of Groups A and B are initially treated with the acetone solution of A-23187. In the case of the animals of Group B alone, 10 microliter of the acetone solution of AN-10 is applied to the affected ears 1/2 hour after the application of the above-mentioned quantity of a solution in acetone of the antibiotic A-23187. The animals of Group C receive a 10 microliter dose per ear of the AN-10 in acetone solution alone. The animals of Group D receive a dose of 10 microliter per ear of pure acetone. All the test subjects are sacrificed four hours after the application of A-23187 to the animals of Groups A and B or the other test materials in the case of the animals of Groups C and D. The results are summarized in Table 2 noted below.
(§2) A second group of studies (Study B) is conducted on two consecutive days with two sets of mice (totalling 80 animals) received from the same shipment.
On Day 2, using the second set of 40 mice, sub-divided into 8 groups of 5 each, the six compounds in question are applied as acetone solutions in the manner described under Study A to mice ears inflamed with A-23187 again, as described in Study A above. As with the studies conducted on Day 1, the remaining two groups of 5 animals each serve as controls and their ears are dosed with A-23187 and acetone respectively.
(§3) The amount of each salicylamide compound applied is kept constant, for Days 1 and 2, at 1.5 micromole per 10 microliter of test solution. Sacrifice begins four hours after application A-23187, on both days, and the results are recorded. Table 2 summarizes the results of the regimen of testing involved with each one of the 30 animals in question on Day 2 with the remaining 10 animals serving as controls as already noted.

untreated mice ears = test: Inflammatory potential on untreated mice ears (Study B, Day 1); type: in vivo, hairless outbred mice (Skh:hr-1 strain); conditions: 1.5 micromole per 10 microliter on untreated ears
Experimental: as §1, §2
The first batch of 40 animals is divided into 8 groups of 5 each. […] The remaining two groups of 5 animals each serve as controls and their ears are dosed with A-23187 and acetone respectively.
as §3

[2] = tested on: inflammation of mice ears caused by calcium ionophore (A-23187); test: Reduction of A-23187-induced ear inflammation (edema and erythema), Examples 4-7, each animal its own control; type: in vivo, male outbred hairless mice; conditions: for reduction of inflammation (reference anti-inflammatories): topical, 30 minutes after application of A-23187; for anti-inflammatory activity (in words): at the concentration used (1.5 micromole topical)
From the text: In a group of 5 male outbred hairless mice, inflammation is induced on their ears by the topical application thereto of 4.0 nmole in acetone solution (total volume 10 microliter) of the known divalent calcium ionophore (antibiotic A-23187), which is derived from Streptomyces chartreusis and is a member of a known class of compounds showing ionophoric activity. See, e.g. Pressman, B. C., "Biological Applications of Ionophores", Ann. Rev. Biochem., 45, 501, 1976. […] See Marks, F., Furstenberger, G., and Kownatzki, E., "Prostaglandin E-mediated Mitogenic Stimulation of Mouse Epidermis in vivo by divalent cation ionophore A-23187 and by tumor promoter 12-O-tetradecanoyl phorbol-13-acetate, Cancer Res., 41, 696, 1981.
In each animal only one ear is treated, the other untreated ear serving as a control.
In Examples 4, 5 and 6 the compounds AN-10, APCF3-8 and AMCF3-8, respectively, are topically applied to the treated ears of different groups of five male outbred hairless mice 30 minutes following the topical application thereto of the ionophore A-23187. Specifically, 1.5 micromole of the amido compound in acetone solution (total volume 10 microliters) is applied topically to treated male outbred hairless mice ears 30 min. after topical application thereto of a calcium ionophore (A-23187, 4.0 nmole total volume to 10 microliter) in acetone. As already noted, in each case, each animal serves as its own control in that only one ear is subjected to said test regime while the other ear is left untouched. Erythema and edema are assessed 4 hrs. after application of the ionophore. In Control Example 7, 3,4',5-tribromosalicylanilide (TBS) is applied in the same manner.

[3] = comparison; oral, rats; cited from earlier work
mice backs (skin) = conditions: topical application to mice backs, in vivo tumor promotion studies; cited from earlier work
[4] = single dose oral route, Osborne-Mendel white rats, sixteen females; cited from earlier work
[5] = 1.5 micromole topical, 30 min after A-23187 (4.0 nmole), assessed 4 hrs after ionophore

Structure (SMILES): C=CC(=O)Oc1ccc(C(=O)CCCCCCCCC)cc1C(=O)Nc1ccc([N+](=O)[O-])cc1 [acryloyl AN-10]
- Reduction in Edema (%), Study B ([1]; ear weights): 82%
- antiinflammatory activity (in words) [1]: significant antiinflammatory activity
- noticeable inflammation (inflammatory potential) (untreated mice ears): none of the six compounds being tested cause any noticeable inflammation

Structure (SMILES): COc1ccc2c(c1)c(CC(=O)O)c(C)n2C(=O)c1ccc(Cl)cc1 [indomethacin]
- reduction of inflammation (reference anti-inflammatories) [2]: reduction of inflammation

Structure (SMILES): O=C(Nc1ccc(Br)cc1)c1cc(Br)cc(Br)c1O [TBS, 3,4',5-tribromosalicylanilide]
- Reduction in Edema (%) [2, 5]: 12%
- Reduction in Erythema (%) [2, 5]: 35%
- anti-inflammatory activity (in words) [2]: essentially inactive

Structure (SMILES): CC(=O)Oc1ccccc1C(=O)O [aspirin, acetylsalicylic acid]
- LD50 (comparable toxicity of aspirin) [3]: about 1.75 g/kg. body weight

Structure (SMILES): C[C@]12CCC(=O)C=C1CC[C@@H]1[C@@H]2[C@@H](O)C[C@@]2(C)[C@H]1CC[C@]2(O)C(=O)CO [hydrocortisone]
- reduction of inflammation (reference anti-inflammatories) [2]: reduction of inflammation

Structure (SMILES): CCCCCCc1ccc(O)c(C(=O)Nc2ccc([N+](=O)[O-])cc2)c1 [SAN-6]
- Reduction in Edema (%), Study B ([1]; ear weights): 59%
- antiinflammatory activity (in words) [1]: significant antiinflammatory activity
- noticeable inflammation (inflammatory potential) (untreated mice ears): none of the six compounds being tested cause any noticeable inflammation

Structure (SMILES): CNc1ccc2oc(C[C@H]3O[C@@]4(CC[C@H]3C)O[C@H]([C@H](C)C(=O)c3ccc[nH]3)[C@H](C)C[C@H]4C)nc2c1C(=O)O [A-23187]
- acute inflammation on treated ears after topical A-23187 ([2]; within 4 hours following topical application, time and dose dependent): Acute inflammation develops
- skin irritation (mice backs (skin)): potent ability to cause skin irritation

Structure (SMILES): CCCCCCCCCC(=O)c1ccc(O)c(C(=O)Nc2ccc([N+](=O)[O-])cc2)c1 [AN-10]
- Reduction in Edema (%), Study A ([1]; Study A, 1.5 micromole per ear, 1/2 hour after A-23187 (4 nmole), sacrificed at 4 hours, ear weights): 55%
- Reduction in Edema (%), Study B ([1]; ear weights): 81%
- antiinflammatory activity (in words) [1]: significant antiinflammatory activity
- noticeable inflammation (inflammatory potential) (untreated mice ears): none of the six compounds being tested cause any noticeable inflammation
- anti-inflammatory activity (in words) [2]: effective anti-inflammatories
- LD50 [4]: greater than 2000 mg./kg.

Structure (SMILES): CCCCc1ccc(O)c(C(=O)Nc2cccc(C(F)(F)F)c2)c1 [S-4-F]
- Reduction in Edema (%), Study B ([1]; ear weights): 70%
- antiinflammatory activity (in words) [1]: significant antiinflammatory activity
- noticeable inflammation (inflammatory potential) (untreated mice ears): none of the six compounds being tested cause any noticeable inflammation

Structure (SMILES): CCCCCCCC(=O)c1ccc(O)c(C(=O)Nc2cccc(C(F)(F)F)c2)c1 [AMCF3-8]
- Reduction in Edema (%), Study B ([1]; ear weights): 81%
- antiinflammatory activity (in words) [1]: significant antiinflammatory activity
- noticeable inflammation (inflammatory potential) (untreated mice ears): none of the six compounds being tested cause any noticeable inflammation
- anti-inflammatory activity (in words) [2]: effective anti-inflammatories

Structure (SMILES): CCCCCCCCC(=O)c1ccc(O)c(C(=O)Nc2cccc(C(=O)OCC)c2)c1 [ACBXE-9]
- Reduction in Edema (%), Study B ([1]; ear weights): 76%
- antiinflammatory activity (in words) [1]: significant antiinflammatory activity
- noticeable inflammation (inflammatory potential) (untreated mice ears): none of the six compounds being tested cause any noticeable inflammation

Structure (SMILES): CCCCCCCC(=O)c1ccc(O)c(C(=O)Nc2ccc(C(F)(F)F)cc2)c1 [APCF3-8]
- anti-inflammatory activity (in words) [2]: effective anti-inflammatories
